Test results as given in ChEMBL document CHEMBL3885861, “Open TG-GATES”.

Species on record: Rattus norvegicus
Assay: Open TG-GATES - Regimen: Daily Repeat
Type: toxicity, organism-based, Sprague-Dawley
Set-up: regimen Daily Repeat, gender Male, age 6 weeks
Settings: in vivo, po, 300 mg/kg, route gavage, dose level High; for APTT / Bas / Eos / Fbg / Hb / Ht / Lym / MCH / MCHC / MCV / Mono / Neu / PT / Plat / RBC / Ret / WBC: tissue Blood; for KIDNEY_L / KIDNEY_R / KIDNEY_TOTAL: tissue Kidney; for LIVER: tissue Liver; for A/G / ALP / ALT / AST / BUN / CRE / Ca / Cl / DBIL / GLC / IP / K / LDH / Na / PL / RALB / TBIL / TC / TG / TP / gamma-GTP: tissue Plasma

## Brc1ccccc1 [BROMOBENZENE]
72 h, time 3 day
  TERMINAL_BW: 204.3 g
  APTT: 21.2 s
  Bas: 0.6%
  Eos: 1%
  Fbg: 259.2 mg/dL
  Hb: 13.1 g/dL
  Ht: 38.3%
  Lym: 78.4%
  MCH: 21.2 pg
  MCHC: 34.2%
  MCV: 62.1 fL
  Mono: 3%
  Neu: 16.4%
  PT: 12 s
  Plat: 109.8 x10_4/uL
  RBC: 616.6 x10_4/ul
  Ret: 4.2%
  WBC: 105.2 x10_2/uL
  KIDNEY_L: 0.9 g
  KIDNEY_R: 0.9 g
  KIDNEY_TOTAL: 1.8 g
  LIVER: 12 g
  A/G: 0.9
  ALP: 1821.4 IU/L
  ALT: 70.8 IU/L
  AST: 110.6 IU/L
  BUN: 12.4 mg/dL
  CRE: 0.2 mg/dL
  Ca: 10.5 mg/dL
  Cl: 104.8 meq/L
  DBIL: 0.02 mg/dL
  GLC: 177.6 mg/dL
  IP: 7 mg/dL
  K: 4.1 meq/L
  LDH: 124.2 IU/L
  Na: 141.8 meq/L
  PL: 184.6 mg/dL
  RALB: 2.6 g/dL
  TBIL: 0.08 mg/dL
  TC: 96.4 mg/dL
  TG: 88.4 mg/dL
  TP: 5.4 g/dL
  gamma-GTP: 1.4 IU/L
[…], time 7 day
  TERMINAL_BW: 239.4 g
  APTT: 17.1 s
  Bas: 0%
  Eos: 0.6%
  Fbg: 278.2 mg/dL
  Hb: 12.6 g/dL
  Ht: 36.8%
  Lym: 74.4%
  MCH: 21.3 pg
  MCHC: 34.3%
  MCV: 62.3 fL
  Mono: 3.2%
  Neu: 21.4%
  PT: 12.4 s
  Plat: 117.3 x10_4/uL
  RBC: 591.2 x10_4/ul
  Ret: 6.9%
  WBC: 101.2 x10_2/uL
  KIDNEY_L: 1 g
  KIDNEY_R: 1 g
  KIDNEY_TOTAL: 2 g
  LIVER: 13.4 g
  A/G: 0.9
  ALP: 1637 IU/L
  ALT: 44 IU/L
  AST: 65.2 IU/L
  BUN: 12.8 mg/dL
  CRE: 0.2 mg/dL
  Ca: 11.3 mg/dL
  Cl: 105.6 meq/L
  DBIL: 0.012 mg/dL
  GLC: 187.4 mg/dL
  IP: 7 mg/dL
  K: 4 meq/L
  LDH: 99.6 IU/L
  Na: 144.2 meq/L
  PL: 171.2 mg/dL
  RALB: 2.8 g/dL
  TBIL: 0.052 mg/dL
  TC: 88 mg/dL
  TG: 94.8 mg/dL
  TP: 6 g/dL
  gamma-GTP: 1 IU/L
[…], time 14 day
  TERMINAL_BW: 287 g
  APTT: 18.6 s
  Bas: 0%
  Eos: 0.6%
  Fbg: 288.4 mg/dL
  Hb: 13.4 g/dL
  Ht: 39.2%
  Lym: 78.4%
  MCH: 20.3 pg
  MCHC: 34.1%
  MCV: 59.5 fL
  Mono: 2.6%
  Neu: 17.8%
  PT: 12.2 s
  Plat: 118 x10_4/uL
  RBC: 658 x10_4/ul
  Ret: 5.1%
  WBC: 106.3 x10_2/uL
  KIDNEY_L: 1.1 g
  KIDNEY_R: 1.1 g
  KIDNEY_TOTAL: 2.2 g
  LIVER: 15.2 g
  A/G: 0.8
  ALP: 1442.4 IU/L
  ALT: 45.8 IU/L
  AST: 69.4 IU/L
  BUN: 15 mg/dL
  CRE: 0.2 mg/dL
  Ca: 10.8 mg/dL
  Cl: 106.4 meq/L
  DBIL: 0.01 mg/dL
  GLC: 185.2 mg/dL
  IP: 6.4 mg/dL
  K: 4 meq/L
  LDH: 63.2 IU/L
  Na: 144 meq/L
  PL: 180.4 mg/dL
  RALB: 2.8 g/dL
  TBIL: 0.04 mg/dL
  TC: 89.4 mg/dL
  TG: 123.2 mg/dL
  TP: 6.1 g/dL
  gamma-GTP: 1.2 IU/L
[…], time 28 day
  TERMINAL_BW: 359.9 g
  APTT: 18.2 s
  Bas: 0%
  Eos: 1%
  Fbg: 295.8 mg/dL
  Hb: 14.6 g/dL
  Ht: 42.5%
  Lym: 73.2%
  MCH: 19.1 pg
  MCHC: 34.4%
  MCV: 55.5 fL
  Mono: 2.6%
  Neu: 23%
  PT: 12.7 s
  Plat: 96.5 x10_4/uL
  RBC: 765 x10_4/ul
  Ret: 2.5%
  WBC: 120.7 x10_2/uL
  KIDNEY_L: 1.5 g
  KIDNEY_R: 1.5 g
  KIDNEY_TOTAL: 2.9 g
  LIVER: 17.7 g
  A/G: 0.8
  ALP: 1183.4 IU/L
  ALT: 42.8 IU/L
  AST: 65.4 IU/L
  BUN: 15.2 mg/dL
  CRE: 0.2 mg/dL
  Ca: 10.4 mg/dL
  Cl: 106.8 meq/L
  DBIL: 0.022 mg/dL
  GLC: 185.2 mg/dL
  IP: 5.6 mg/dL
  K: 4 meq/L
  LDH: 73 IU/L
  Na: 143.4 meq/L
  PL: 165.4 mg/dL
  RALB: 2.7 g/dL
  TBIL: 0.048 mg/dL
  TC: 79.8 mg/dL
  TG: 154.2 mg/dL
  TP: 6.2 g/dL
  gamma-GTP: 1.2 IU/L
